Laboratory results: the NIST ThermoML archive (doi:10.1016/j.fluid.2014.03.003)
± gives the expanded uncertainty stated by the source.

Conditions: Liquid, Closed cell (Static) method

Cc1ccccc1C [1,2-dimethylbenzene]
Conditions	vapor or sublimation pressure [kPa]
313.15 K	2.052 ± 0.035
323.15 K	3.456 ± 0.022
333.15 K	5.613 ± 0.047
343.15 K	8.542 ± 0.051
353.15 K	12.73 ± 0.04
363.15 K	18.65 ± 0.057
373.15 K	26.73 ± 0.076
378.15 K	31.66 ± 0.091
383.15 K	37.35 ± 0.1
388.15 K	43.63 ± 0.12
393.15 K	51.01 ± 0.14
403.15 K	68.42 ± 0.18
413.15 K	90.18 ± 0.24

Cc1cccc(C)c1 [1,3-dimethylbenzene]
Conditions	vapor or sublimation pressure [kPa]
308.15 K	2.631 ± 0.045
313.15 K	3.524 ± 0.028
318.15 K	4.372 ± 0.036
323.15 K	5.37 ± 0.045
328.15 K	6.496 ± 0.037
333.15 K	7.75 ± 0.038
338.15 K	9.305 ± 0.035
343.15 K	11.12 ± 0.036
353.15 K	15.97 ± 0.048
363.15 K	22.76 ± 0.058
373.15 K	32.06 ± 0.079
383.15 K	44.23 ± 0.11
403.15 K	80.2 ± 0.16

Cc1ccc(C)cc1 [1,4-dimethylbenzene]
Conditions	vapor or sublimation pressure [kPa]
303.15 K	1.562 ± 0.031
313.15 K	2.49 ± 0.039
323.15 K	4.422 ± 0.042
333.15 K	6.997 ± 0.048
343.15 K	10.63 ± 0.057
353.15 K	15.72 ± 0.085
358.15 K	19.04 ± 0.085
363.15 K	22.8 ± 0.091
373.15 K	32.04 ± 0.12
383.15 K	44.56 ± 0.16
393.15 K	60.79 ± 0.22
403.15 K	80.87 ± 0.28
408.15 K	92.43 ± 0.32

c1ccccc1 [benzene]
Conditions	vapor or sublimation pressure [kPa]
293.15 K	9.983 ± 0.027
298.15 K	12.64 ± 0.037
303.15 K	15.85 ± 0.035
308.15 K	19.71 ± 0.05
313.15 K	24.3 ± 0.052
318.15 K	29.73 ± 0.063
323.15 K	36.09 ± 0.069
328.15 K	43.51 ± 0.082
333.15 K	52.11 ± 0.11
338.15 K	62.01 ± 0.11
343.15 K	73.35 ± 0.13
348.15 K	86.27 ± 0.15
353.15 K	100.91 ± 0.17

CCc1ccccc1 [ethylbenzene]
Conditions	vapor or sublimation pressure [kPa]
308.15 K	2.223 ± 0.019
318.15 K	3.746 ± 0.041
323.15 K	4.712 ± 0.029
328.15 K	5.967 ± 0.03
333.15 K	7.448 ± 0.031
338.15 K	9.251 ± 0.028
343.15 K	11.41 ± 0.032
348.15 K	13.79 ± 0.04
358.15 K	20.42 ± 0.06
368.15 K	29.11 ± 0.073
383.15 K	47.75 ± 0.1
403.15 K	85.64 ± 0.17

Cc1ccccc1 [toluene]
Conditions	vapor or sublimation pressure [kPa]
303.15 K	4.905 ± 0.022
308.15 K	6.257 ± 0.024
313.15 K	7.963 ± 0.026
318.15 K	9.959 ± 0.034
323.15 K	12.31 ± 0.032
328.15 K	15.14 ± 0.041
333.15 K	18.86 ± 0.057
338.15 K	22.61 ± 0.05
343.15 K	27.31 ± 0.059
348.15 K	32.72 ± 0.071
358.15 K	46.17 ± 0.091
368.15 K	63.84 ± 0.12
378.15 K	86.25 ± 0.16
